# Results: patent publication US11285142B2, “Compositions and methods for identifying and treating dystonia disorders” (DUKE UNIVERSITY, priority 2015, dated 2022)
# Entries after “also recorded” stand apart in the source; their conditions may differ. Counter-ions that a name gives are not always drawn. Like-named read-outs stand apart in the source and are kept apart here.
# Experiments:
# [1] = system: delta-E Torsin1a localization in Flp-In T-REx 293 cells expressing EGFP-delta-E Torsin1a; test: delta-E Torsin1a mis-localization assay (high-content imaging, % cells with EGFP puncta); format: cell-based, human; settings: for AC50 / % pathology Max Resp / % pathology Efficacy / % pathology CC-v2 (dose response Curve Class): Table 6; for AC50: AC = Active Concentration, read-out: % pathology AC50; for % pathology Max Resp / % pathology Efficacy: normalized scale; for % pathology Max Resp: WT-TorsinA line 0%, DYT1 mutant line 100% pathology; for % pathology Efficacy: −100% = WT TorsinA phenotype, 0% = Mutant TorsinA phenotype; for effect on delta-E Torsin1a localization (in words): delta-E cell line, dose response
# Description: To limit variation in expression levels associated with random integration or transient expression, single copies of either WT or delta-E human TOR1A cDNAs with N-terminal EGFP fusions were inserted at the FRT site in Flp-In™ T-Rex™ 293 cells (Thermo Fisher Scientific #R780-07) via flippase recombinase-mediated cassette exchange according to the manufacturer's recommended protocols.
# The cells were maintained at 37° C./5% CO2. All experiments were performed on cells with fewer than 5 passages.
# Torsin1a expression was also controlled by tetracycline induction to avoid selective pressure modifying the cellular phenotypes. […] The mutant phenotype was measured as the percentage of cells with one or more EGFP puncta using automated high-content imaging analysis (see infra).
# The image analysis algorithm was developed using the Cellomics ArrayScan V CompartmentAnalysisV2 protocol. Hoechst's nuclear staining (Ch1: excitation 350 nm; emission 461 nm) was used for focusing and for cell identification by nuclear size, shape, and intensity. […] Detected cells were gated according to nuclear area, length-to-width ratio, and perimeter-to-area ratio. For the purpose of analysis, cell bodies were defined by a radius of 10 μm from the outer edge of the defined nucleus. Overlapping cells were automatically segmented according to the Cellomics ArrayScanV CompartmentAnalysisV2 object segmentation feature. EGFP fluorescence (Ch2: excitation 488 nm; emission 509 nm) was used for puncta detection. […] Torsin1a puncta were identified using the spot detection feature of the Compartmental AnalysisV2 protocol. The percentage of cells containing one or more puncta was used as the primary metric in this assay.
# (§1) In order to test this model directly, the delta-E Torsin1a cell line was treated with compounds targeting the eIF2-alpha signaling pathway (FIG. 2). […] The following day, serial drug dilutions were prepared at 2× final concentration in assay media containing 10 μg/mL tetracycline and 30 μL of the drug/tetracycline mixture was added to the appropriate wells, while control wells received 30 μL of assay media alone or assay media+10 μg/mL tetracycline (final tetracycline concentration for all wells except negative controls: 5 μg/mL). Cells were then incubated at 37° C./5% CO^2 for 48 hours and fixed, permeabilized, Hoechst stained, and imaged as described above. The range of the Torsin1a localization effect was normalized to the percentage of cells with puncta in vehicle-treated delta-E cell line as the maximum and that in WT cell line as the minimum (FIG. 2, panels c-h). Cell count and EGFP-Torsin1a expression were normalized to their respective values in the vehicle-treated delta-E cell line as the maximum. All dose response data are the average of 4 independent experiments per dose. Untreated control data used for normalization are the average of 24 independent experiments.
# [2] = Cytotoxicity (cell count, cellular morphology) in the Torsin1a assay cell line; format: cell-based, human; settings: human; Table 6; read-out: Cytotox AC50
# Description: as §1
# (§2) Efficacy is calculated as the magnitude of the pathology correction relative to the mutant Torsin1a pathology. For example an efficacy=−100% would be equivalent to the WT TorsinA phenotype, and 0% would be equivalent to the Mutant TorsinA phenotype. CCv2 refers to the dose response Curve Class annotation, and AC refers to Active Concentration.
# [3] = system: Flp-In T-REx 293 cells expressing delta-E Torsin1a; test: as above; format: cell-based, human; settings: for Cytotox CC-v2 (dose response Curve Class) / Cytotox Efficacy / Cytotox Max Resp / AC50: Table 6; for ΔE TorsinA Mislocalization Assay Cytotoxicity EC50: Table 5; for toxicity (cell count, cellular morphology; in words): at effective concentrations; for AC50: read-out: Cytotox AC50
# Description: as §1, §2
# [4] = system: luciferase secretion; test: C.Luc. Secretion Assay (luciferase secretion, secretory deficits); format: cell-based
# Description: We tested each shRNA for its ability to rescue a previously described defect in luciferase secretion. Chen, P. et al. (2010) Hum. Mol. Genet. 19, 3502-15; Cao, S. et al. (2010) Dis. Model. Mech. 3, 386-96; Barrows, N. J., et al., (2010)J. Biomol. Screen. 15, 735-47.) DYT1 patient data were obtained from 4 independent patient-derived lines and WT data (black bar) from 3 normal healthy control lines. Each line was tested in 5 independent experiments that included 4 technical replicates each (with the exception of SCD data from 3 independent experiments).
# (Cao, S. et al. (2010) Dis. Model. Mech. 3, 386-96.) Subsequent testing of additional HIV protease inhibitors supported the activity of this class of compounds and generated favorable structure-activity relationship (SAR) data from which to design improved compounds (Tables 5 and 6). The results with a subset of compounds were also observed in a Luciferase secretion assay (Tables 5 and 6).
structure (smiles),measurement,setting,value
CC(C)(C)NC(=O)[C@@H]1C[C@@H]2CCCC[C@@H]2CN1C[C@@H](O)[C@H](Cc1ccccc1)NC(=O)[C@H](CC(N)=O)NC(=O)c1ccc2ccccc2n1 [Saquinavir mesylate],AC50,"[1]; Homo sapiens, Flp-In-T-REx-293",8.33 µM
same,% pathology Max Resp,[1],−84.62%
same,% pathology Efficacy,[1],−85.98%
same,AC50,[2],20.9 µM
Cc1c(O)cccc1C(=O)N[C@@H](CSc1ccccc1)[C@H](O)CN1C[C@H]2CCCC[C@H]2C[C@H]1C(=O)NC(C)(C)C [Viracept],AC50,"[1]; Homo sapiens, Flp-In-T-REx-293",5.26 µM
same,% pathology Max Resp,[1],−94.06%
same,% pathology Efficacy,[1],−119.39%
same,AC50,[2],10.5 µM
same,Cytotox CC-v2 (dose response Curve Class),[3],−1.1
same,Cytotox Efficacy,[3],−106.32
same,Cytotox Max Resp,[3],−97.72
CCCC(CCC)C(=O)O [valproic acid],effect on delta-E Torsin1a localization (in words),[1],no effect
CC(C)CN(C[C@@H](O)[C@H](Cc1ccccc1)NC(=O)O[C@H]1CCOC1)S(=O)(=O)c1ccc(N)cc1 [Amprenavir],ΔE TorsinA Mislocalization Assay Localization EC50,[1]; Table 5,No Activity
same,ΔE TorsinA Mislocalization Assay Cytotoxicity EC50,[3],None
same,Cytotox CC-v2 (dose response Curve Class),[3],4
same,C.Luc. Secretion Assay Secretion EC50,[4]; Table 5,No Activity
C[C@H](NC(=O)Cc1cc(F)cc(F)c1)C(=O)N[C@H](C(=O)OC(C)(C)C)c1ccccc1 [DAPT],effect on delta-E Torsin1a localization (in words),[1],no effect
CC(C)CN(C[C@@H](O)[C@H](Cc1ccccc1)NC(=O)O[C@H]1CO[C@H]2OCC[C@H]21)S(=O)(=O)c1ccc(N)cc1 [Darunavir],ΔE TorsinA Mislocalization Assay Localization EC50,[1]; Table 5,No Activity
same,C.Luc. Secretion Assay Secretion EC50,[4]; Table 5,No Activity
COC(=O)N[C@H](C(=O)N[C@@H](Cc1ccccc1)[C@@H](O)CN(Cc1ccc(-c2ccccn2)cc1)NC(=O)[C@@H](NC(=O)OC)C(C)(C)C)C(C)(C)C [Atazanavir],ΔE TorsinA Mislocalization Assay Localization EC50,[1]; Table 5,No Activity
same,ΔE TorsinA Mislocalization Assay Cytotoxicity EC50,[3],None
same,Cytotox CC-v2 (dose response Curve Class),[3],4
same,C.Luc. Secretion Assay Secretion EC50,[4]; Table 5,No Activity
CCN(CC)CCC(=O)N1N=C(c2c(-c3ccccc3)c3cc(Br)ccc3[nH]c2=O)CC1c1ccc(Br)cc1 (centres unmarked) [CCT020312],effect on delta-E Torsin1a localization (in words),[1],dose-dependent reduction
same,"toxicity (cell count, cellular morphology; in words)",[3],highly toxic at effective concentrations
N=C(N)N/N=C/c1c(Cl)cccc1Cl [guanabenz],effect on delta-E Torsin1a localization (in words),[1],no effect
Cc1cccc(C)c1OCC(=O)NC(CCC(Cc1ccccc1)NC(=O)C(C(C)C)N1CCCNC1=O)Cc1ccccc1 (centres unmarked) [Des-hydroxy Lopinavir],% pathology CC-v2 (dose response Curve Class),[1],−3
same,AC50,[1],8.33 µM
same,% pathology Max Resp,[1],−33.96%
same,% pathology Efficacy,[1],−82.44%
same,Cytotox CC-v2 (dose response Curve Class),[3],−2.2
same,Cytotox Efficacy,[3],−77.66
same,Cytotox Max Resp,[3],−66.67
same,AC50,[3],20.9 µM
"CC(C)c1nc(CN(C)C(=O)N[C@H](C(=O)N[C@@H](Cc2ccccc2)C[C@H](O)[C@H](Cc2ccccc2)NC(=O)OCc2cncs2)C(C)C)cs1 [Ritonavir, ritonavir]",EC50,"[1]; Homo sapiens, Flp-In-T-REx-293, Table 5, read-out: ΔE TorsinA Mislocalization Assay Localization EC50",4.11 µM
same,Emax,"[1]; Homo sapiens, Flp-In-T-REx-293, Table 5, read-out: ΔE TorsinA Mislocalization Assay Localization Max Efficacy",87%
same,AC50,"[1]; Homo sapiens, Flp-In-T-REx-293",2.96 µM
same,% pathology Max Resp,[1],−82.60%
same,% pathology Efficacy,[1],−92.96%
same,effect on delta-E Torsin1a localization (in words),[1],corrected TorsinA localization in a dose-dependent fashion; also recorded: restored
same,Cytotox CC-v2 (dose response Curve Class),[3],4
same,"toxicity (cell count, cellular morphology; in words)",[3],no cellular toxicity observed at effective doses
same,EC50,[4]; Table 5,3.72 µM
same,Emax,"[4]; Table 5, read-out: C.Luc. Secretion Assay Secretion Max Efficacy",49%
same,correction of secretory deficits (in words),[4]; orthogonal assays,corrected secretory deficits
CS(=O)(=O)O.Cc1c(O)cccc1C(=O)N[C@@H](CSc1ccccc1)[C@H](O)CN1C[C@H]2CCCC[C@H]2C[C@H]1C(=O)NC(C)(C)C.O [Nelfinavir mesylae hydrate],% pathology CC-v2 (dose response Curve Class),[1],−1.1
same,AC50,[1],2.7 µM
same,% pathology Max Resp,[1],−92.46%
same,% pathology Efficacy,[1],−75.26%
same,Cytotox CC-v2 (dose response Curve Class),[3],−1.1
same,Cytotox Efficacy,[3],−98.05
same,Cytotox Max Resp,[3],−95.64
same,AC50,[3],6.05 µM
